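Growth conditions: 96-well plates. Treatment: test compound, 48 hours, 5 concentrations. Analysis: linear interpolation between bracketing concentrations; unreached endpoints set to highest concentration. The concentration for 50% growth inhibition is given as GI50.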 Calls of active or inactive are those of the source. No stated cut-off is given here; in the data, active = GI50 up to about 1.1 µM and inactive = higher.
What was measured:
Experiment in all cases: growth of human tumour cells (NCI), 48 h
DLD-1 = system: DLD-1
K562 = system: K562
RPMI-8226 = system: RPMI-8226
LXFL 529 = system: LXFL 529
CCRF-CEM = system: CCRF-CEM
HOP-92 = system: HOP-92
EKVX = system: EKVX
HCT-15 = system: HCT-15
SK-MEL-2 = system: SK-MEL-2
SF-268 = system: SF-268
HT-29 = system: HT-29
KM12 = system: KM12
ACHN = system: ACHN
NCI-H23 = system: NCI-H23
NCI-H460 = system: NCI-H460
NCI-H522 = system: NCI-H522
COLO 205 = system: COLO 205
OVCAR-3 = system: OVCAR-3
OVCAR-8 = system: OVCAR-8
OVCAR-4 = system: OVCAR-4
A549 = system: A549
IGROV-1 = system: IGROV-1
SF-539 = system: SF-539
SNB-19 = system: SNB-19
HOP-62 = system: HOP-62
DMS-114 = system: DMS-114
M14 = system: M14
LOX IMVI = system: LOX IMVI
HCC 2998 = system: HCC 2998
OVCAR-5 = system: OVCAR-5
SK-MEL-5 = system: SK-MEL-5
SF-295 = system: SF-295
TK-10 = system: TK-10
MOLT-4 = system: MOLT-4
HCT-116 = system: HCT-116
SK-OV-3 = system: SK-OV-3
M19-MEL = system: M19-MEL
CAKI-1 = system: CAKI-1
SK-MEL-28 = system: SK-MEL-28
UO-31 = system: UO-31
Malme-3M = system: Malme-3M
SNB-78 = system: SNB-78
UACC-62 = system: UACC-62
UACC-257 = system: UACC-257
SN12C = system: SN12C
SW-620 = system: SW-620
XF498 = system: XF498
KM-20L2 = system: KM-20L2
NCI-H226 = system: NCI-H226
786-0 = system: 786-0
U-251 = system: U-251
HL-60 = system: HL-60
RXF 393 = system: RXF 393
A498 = system: A498
DMS-273 = system: DMS-273
SNB-75 = system: SNB-75

Q: With CC(=O)NNc1nc(C)c(C(=O)NNC(=O)C(=O)Nc2ccc(Cl)cc2Cl)s1 as the molecule, how does the GI50 (DLD-1) read?
A: 38.4 µM (inactive)

Q: And the GI50 (K562)?
A: 21 µM (inactive)

Q: And the GI50 (RPMI-8226)?
A: 31.3 µM (inactive)

Q: And the GI50 (LXFL 529)?
A: 29.4 µM (inactive)

Q: And the GI50 (CCRF-CEM)?
A: 20.6 µM (inactive)

Q: What about the GI50 (HOP-92) of the same molecule?
A: 25.9 µM (inactive)

Q: And the GI50 (EKVX)?
A: 40.1 µM (inactive)

Q: And the GI50 (HCT-15)?
A: 38.5 µM

Q: What about the GI50 (SK-MEL-2) of the same molecule?
A: 44.1 µM (inactive)

Q: What about the GI50 (SF-268) of the same molecule?
A: 27.4 µM (inactive)

Q: And the GI50 (HT-29)?
A: 48.5 µM (inactive)

Q: And the GI50 (KM12)?
A: 53.7 µM (inactive)

Q: And the GI50 (ACHN)?
A: 29.2 µM (inactive)

Q: What about the GI50 (NCI-H23) of the same molecule?
A: 32.8 µM (inactive)

Q: What about the GI50 (NCI-H460) of the same molecule?
A: > 10 µM (inactive)

Q: What about the GI50 (NCI-H522) of the same molecule?
A: 19.5 µM (inactive)

Q: What about the GI50 (COLO 205) of the same molecule?
A: 35.9 µM (inactive)

Q: What about the GI50 (OVCAR-3) of the same molecule?
A: 19.6 µM (inactive)

Q: And the GI50 (OVCAR-8)?
A: 40.2 µM (inactive)

Q: And the GI50 (OVCAR-4)?
A: 22 µM (inactive)

Q: What about the GI50 (A549) of the same molecule?
A: 35.9 µM (inactive)

Q: And the GI50 (IGROV-1)?
A: 63.5 µM (inactive)

Q: What about the GI50 (SF-539) of the same molecule?
A: 30.1 µM (inactive)

Q: What about the GI50 (SNB-19) of the same molecule?
A: 42.6 µM (inactive)

Q: And the GI50 (HOP-62)?
A: 38.5 µM (inactive)

Q: What about the GI50 (DMS-114) of the same molecule?
A: 33.2 µM (inactive)

Q: And the GI50 (M14)?
A: 42.5 µM (inactive)

Q: What about the GI50 (LOX IMVI) of the same molecule?
A: 33.7 µM (inactive)

Q: And the GI50 (HCC 2998)?
A: 40.6 µM (inactive)

Q: What about the GI50 (OVCAR-5) of the same molecule?
A: 55.1 µM (inactive)

Q: And the GI50 (SK-MEL-5)?
A: 30.5 µM (inactive)

Q: And the GI50 (SF-295)?
A: 42.1 µM (inactive)

Q: And the GI50 (TK-10)?
A: 74.3 µM (inactive)

Q: And the GI50 (MOLT-4)?
A: 20.1 µM (inactive)

Q: And the GI50 (HCT-116)?
A: 47.2 µM (inactive)

Q: And the GI50 (SK-OV-3)?
A: 31.9 µM (inactive)

Q: And the GI50 (M19-MEL)?
A: 38.4 µM (inactive)

Q: And the GI50 (CAKI-1)?
A: 28.3 µM (inactive)

Q: And the GI50 (SK-MEL-28)?
A: 39.9 µM (inactive)

Q: And the GI50 (UO-31)?
A: 28.2 µM (inactive)

Q: What about the GI50 (Malme-3M) of the same molecule?
A: 57 µM (inactive)

Q: What about the GI50 (SNB-78) of the same molecule?
A: 36.6 µM (inactive)

Q: And the GI50 (UACC-62)?
A: 25.2 µM (inactive)

Q: What about the GI50 (UACC-257) of the same molecule?
A: 31 µM (inactive)

Q: And the GI50 (SN12C)?
A: 45.6 µM (inactive)

Q: What about the GI50 (SW-620) of the same molecule?
A: 22.2 µM (inactive)

Q: What about the GI50 (XF498) of the same molecule?
A: 30.1 µM (inactive)

Q: What about the GI50 (KM-20L2) of the same molecule?
A: 40.1 µM (inactive)

Q: What about the GI50 (NCI-H226) of the same molecule?
A: 34.2 µM (inactive)

Q: And the GI50 (786-0)?
A: 40.7 µM (inactive)

Q: And the GI50 (U-251)?
A: 31.1 µM (inactive)

Q: And the GI50 (HL-60)?
A: 37.4 µM (inactive)

Q: Which results are given for O=C1OC(=O)C23CSCC12C1C=CC3O1 (stereo not given)?
A: GI50 (DLD-1): > 100 µM (inactive); GI50 (K562): > 100 µM (inactive); GI50 (RPMI-8226): > 100 µM (inactive); GI50 (LXFL 529): > 100 µM (inactive); GI50 (CCRF-CEM): > 100 µM (inactive); GI50 (EKVX): > 100 µM (inactive); GI50 (HCT-15): > 100 µM; GI50 (SK-MEL-2): > 100 µM (inactive); GI50 (SF-268): > 100 µM (inactive); GI50 (HT-29): > 100 µM (inactive); GI50 (KM12): > 100 µM (inactive); GI50 (ACHN): > 100 µM (inactive); GI50 (NCI-H23): > 100 µM (inactive); GI50 (RXF 393): > 100 µM (inactive); GI50 (NCI-H460): > 100 µM (inactive); GI50 (NCI-H522): > 100 µM (inactive); GI50 (COLO 205): > 100 µM (inactive); GI50 (OVCAR-3): > 100 µM (inactive); GI50 (OVCAR-8): > 100 µM (inactive); GI50 (A549): > 100 µM (inactive); GI50 (IGROV-1): > 100 µM (inactive); GI50 (SF-539): > 100 µM (inactive); GI50 (SNB-19): > 100 µM (inactive); GI50 (HOP-62): > 100 µM (inactive); GI50 (DMS-114): > 100 µM (inactive); GI50 (M14): > 100 µM (inactive); GI50 (LOX IMVI): > 100 µM (inactive); GI50 (HCC 2998): > 100 µM (inactive); GI50 (OVCAR-5): > 100 µM (inactive); GI50 (SK-MEL-5): > 100 µM (inactive); GI50 (SF-295): > 100 µM (inactive); GI50 (TK-10): > 100 µM (inactive); GI50 (MOLT-4): > 100 µM (inactive); GI50 (HCT-116): > 100 µM (inactive); GI50 (SK-OV-3): > 100 µM (inactive); GI50 (M19-MEL): > 100 µM (inactive); GI50 (CAKI-1): > 100 µM (inactive); GI50 (SK-MEL-28): > 100 µM (inactive); GI50 (UO-31): > 100 µM (inactive); GI50 (A498): > 100 µM (inactive); GI50 (Malme-3M): > 100 µM (inactive); GI50 (UACC-62): > 100 µM (inactive); GI50 (UACC-257): > 100 µM (inactive); GI50 (SN12C): > 100 µM (inactive); GI50 (SW-620): > 100 µM (inactive); GI50 (XF498): > 100 µM (inactive); GI50 (KM-20L2): > 100 µM (inactive); GI50 (NCI-H226): > 100 µM (inactive); GI50 (786-0): > 100 µM (inactive); GI50 (DMS-273): > 100 µM (inactive); GI50 (U-251): > 100 µM (inactive); GI50 (SNB-75): > 100 µM (inactive); GI50 (HL-60): > 100 µM (inactive)

Reference: ChEMBL document CHEMBL1201862, “PubChem BioAssay data set” (2004)
